Key:
[1] = previous studies (Evans 1994; Werner et al. 1992); cited from earlier work
[2] = test system: collagen-induced arthritis; assay: Collagen-II induced arthritis (CIA) in DBA/1 mice; assay type: in vivo; conditions: CIA DBA/1 mice; MTX 10 mg/kg/week p.o.
Experimental: Female DBA/1 mice (8-9 weeks old) were purchased from Shanghai SiLaike (SLAC) Laboratory Animal Company (Shanghai, China) and fed with a chow diet and water at room temperature. Equal volume of complete Freuend's adjuvant (CFA) and Bovine Type II Collagen (CII) were mixed and emulsified using a homogenizer (13,000 rpm) on ice. On day 0, DBA/1 mice were immunized by injecting 50 μl of CII in CFA in the tail, approximately 2 cm from the base of the tail. After injection, on day 18, mice with one or more than one paw inflamed were chosen and randomly divided into model group, SIN (100 mg/kg, i.p.) treatment group and MTX (10 mg/kg/week, p.o) treatment group, the mice without immunization were used as normal control. On day 21, these chosen mice were boosted through injecting the same volume of CII in IFA same as the day 0 immunization procedure. The incidence of joint swelling in each group was recorded every two days since drug treatment. Paw thickness (at the ankle joints of the hind paws) of each mouse was obtained by using vernier caliper to record the severity of paw swelling.
Arthritis score of each paw was evaluated every two days during experiment with the following criteria: • 0: no evidence of erythema and swelling; • 1: erythema and mild swelling confirmed to the tarsals or ankle joint; • 2: erythema and mild swelling extending from the ankle to the tarsal joints; • 3: erythema and moderate swelling extending from the ankle to metatarsal joints; and • 4: erythema and severe swelling encompass the ankle, foot and digits, or ankylosis of the limb.
The score of each paw was summed for a score of 0-16 for each mouse. Mice were then sacrificed and hind paws were removed and freshly frozen in liquid nitrogen and stored at −80° C. until used.

mPGES-1 = mPGES-1 protein expression in hind paws of CIA DBA/1 mice; assay type: in vivo; conditions: SIN 100 mg/kg i.p. or MTX 10 mg/kg/week p.o.
Experimental: Female DBA/1 mice (8-9 weeks old) were purchased from Shanghai SiLaike (SLAC) Laboratory Animal Company (Shanghai, China) and fed with a chow diet and water at room temperature. Equal volume of complete Freuend's adjuvant (CFA) and Bovine Type II Collagen (CII) were mixed and emulsified using a homogenizer (13,000 rpm) on ice. On day 0, DBA/1 mice were immunized by injecting 50 μl of CII in CFA in the tail, approximately 2 cm from the base of the tail. […] The incidence of joint swelling in each group was recorded every two days since drug treatment. […]
Frozen paws were pulverized in liquid nitrogen using a stainless steel mortar and pestle, then re-suspended in 8 volumes of ice-cold PBS from Invitrogen (San Diego, Calif., USA) with 2.6 mM DTT from Promega (Madison, Wis., USA) and 2×Complete Protease Inhibitor mixture from Roche (Mannheim, Germany), and homogenized on ice bath using a tissue homogenizer from T25 digital, IKA (Stanfen, Germany) at 10,000 rpm/min for 5 min. […] The protein concentrations were measured using a Bio-Rad protein assay kit (Hercules, Calif., USA). […]
Whole-cell and nuclear proteins were obtained using RIPA lysis buffer (CST, Boston, Mass., USA) and Nuclear and Cytoplasmic Extraction Reagents kit from Thermo Scientific (Asheville, N.C., USA), respectively. […] The levels of protein expression were measured using Odyssey v3.0 software from Li-COR (Lincoln, Nebr., USA).

C[C@@H]1C[C@H]2[C@@H]3CCC4=CC(=O)C=C[C@]4(C)[C@@]3(F)[C@@H](O)C[C@]2(C)[C@@]1(O)C(=O)CO [DEX, Dexamethasone]
cardiac side effects [1]: faster heart rates, transient absolute myocardial hypertrophy and increase in systemic blood pressure

CN(Cc1cnc2nc(N)nc(N)c2n1)c1ccc(C(=O)N[C@@H](CCC(=O)O)C(=O)O)cc1 [MTX, methotrexate, reference compound]
arthritis in CIA mice [2]: no observable effects | mPGES-1 protein expression in inflamed hind paws (mPGES-1): no observable effects
